Values of other authors in US10570425B2, “Engineered cyanobacterium and its application for producing acetate” (National Tsing Hua University, priority 2017, dated 2020).

Tests used:
[1] = biological target: 3-hydroxypropionaldehyde dehydrogenase (AldH) (Escherichia coli, UniProt P23883); conditions: substrate of AldH
padA = conditions: substrate of padA as titled, Table 5
[2] = tested on: phenylacetaldehyde dehydrogenase (PadA); conditions: substrate of padA, Table 4
[3] = biological target: acetaldehyde dehydrogenase B (AldB) (Escherichia coli, UniProt P37685); conditions: substrate of aldB
[4] = tested on: phosphate acetyltransferases (Pta and EutD); conditions: Acetyl-CoA forming reaction; for kcat/KmAc-P: substrate Ac-P; for kcat/KmCoA: substrate CoA

Sequence of 3-hydroxypropionaldehyde dehydrogenase (AldH) (P23883 whole entry): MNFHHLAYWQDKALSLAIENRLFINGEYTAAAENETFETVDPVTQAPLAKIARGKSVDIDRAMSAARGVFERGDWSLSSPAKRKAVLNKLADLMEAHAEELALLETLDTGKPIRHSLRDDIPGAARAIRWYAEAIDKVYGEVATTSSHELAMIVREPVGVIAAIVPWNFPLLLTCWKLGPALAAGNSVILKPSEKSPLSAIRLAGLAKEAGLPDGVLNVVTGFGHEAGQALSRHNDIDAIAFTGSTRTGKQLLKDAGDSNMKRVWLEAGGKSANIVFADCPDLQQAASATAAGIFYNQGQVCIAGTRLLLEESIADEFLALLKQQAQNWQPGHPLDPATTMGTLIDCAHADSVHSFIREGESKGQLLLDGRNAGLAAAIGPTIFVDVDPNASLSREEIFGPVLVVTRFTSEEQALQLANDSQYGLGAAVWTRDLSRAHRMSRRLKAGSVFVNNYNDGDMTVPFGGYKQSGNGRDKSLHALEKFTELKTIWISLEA
Sequence of acetaldehyde dehydrogenase B (AldB) (P37685 whole entry): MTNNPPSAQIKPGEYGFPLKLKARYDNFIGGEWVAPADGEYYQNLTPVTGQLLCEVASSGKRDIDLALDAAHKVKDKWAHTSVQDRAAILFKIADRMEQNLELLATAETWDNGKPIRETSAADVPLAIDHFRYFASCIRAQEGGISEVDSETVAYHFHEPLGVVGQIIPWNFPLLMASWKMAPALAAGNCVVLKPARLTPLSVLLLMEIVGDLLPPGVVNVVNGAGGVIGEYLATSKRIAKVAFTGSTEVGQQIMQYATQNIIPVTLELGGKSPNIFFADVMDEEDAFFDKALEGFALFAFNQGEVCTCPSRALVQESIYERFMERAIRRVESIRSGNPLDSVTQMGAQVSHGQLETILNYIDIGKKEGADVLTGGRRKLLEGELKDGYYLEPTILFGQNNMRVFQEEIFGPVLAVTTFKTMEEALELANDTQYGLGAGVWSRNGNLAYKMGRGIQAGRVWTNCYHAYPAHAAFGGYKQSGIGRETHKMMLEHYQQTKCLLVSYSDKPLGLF

O=CCCO [3-Hydroxypropionaldehyde]
Km [1]: 490 µM

CC=O [Acetaldehyde]
Km (padA): 15200 µM | Km [1]: 1000 µM | Km [2]: 2150 µM | Km [3]: 2.5 µM

O=Cc1ccccc1 [Benzaldehyde]
Km (padA): 150 µM | Km [2]: 8 µM

O=CCCl [Chloroacetaldehyde]
Km [3]: 3.6 µM

CCC=O [Propionaldehyde]
Km (padA): 240 µM | Km [1]: 1210 µM | Km [2]: 11.6 µM | Km [3]: 5.8 µM

Ec-eutD: phosphate acetyltransferase EutD from Escherichia coli
kcat/KmAc-P [4]: 1.3 sec^−1μM^−1 | kcat/KmCoA [4]: 12.6 sec^−1μM^−1

B1: Ec-pta: phosphate acetyltransferase Pta from Escherichia coli (protein, UniProt P0A9M8 2-714, looked up)
Phosphate acetyltransferase: SRIIMLIPTGTSVGLTSVSLGVIRAMERKGVRLSVFKPIAQPRTGGDAPDQTTTIVRANSSTTTAAEPLKMSYVEGLLSSNQKDVLMEEIVANYHANTKDAEVVLVEGLVPTRKHQFAQSLNYEIAKTLNAEIVFVMSQGTDTPEQLKERIELTRNSFGGAKNTNITGVIVNKLNAPVDEQGRTRPDLSEIFDDSSKAKVNNVDPAKLQESSPLPVLGAVPWSFDLIATRAIDMARHLNATIINEGDINTRRVKSVTFCARSIPHMLEHFRAGSLLVTSADRPDVLVAACLAAMNGVEIGALLLTGGYEMDARISKLCERAFATGLPVFMVNTNTWQTSLSLQSFNLEVPVDDHERIEKVQEYVANYINADWIESLTATSERSRRLSPPAFRYQLTELARKAGKRIVLPEGDEPRTVKAAAICAERGIATCVLLGNPAEINRVAASQGVELGAGIEIVDPEVVRESYVGRLVELRKNKGMTETVAREQLEDNVVLGTLMLEQDEVDGLVSGAVHTTANTIRPPLQLIKTAPGSSLVSSVFFMLLPEQVYVYGDCAINPDPTAEQLAEIAIQSADSAAAFGIEPRVAMLSYSTGTSGAGSDVEKVREATRLAQEKRPDLMIDGPLQYDAAVMADVAKSKAPNSPVAGRATVFIFPDLNTGNTTYKAVQRSADLISIGPMLQGMRKPVNDLSRGALVDDIVYTIALTAIQSAQQQ
kcat/KmAc-P [4]: 0.25 sec^−1μM^−1 | kcat/KmCoA [4]: 3.4 sec^−1μM^−1
